Reference: the supplement of paper PMC7840683
± gives the standard deviation of the averaged measurements.

System: HepaRG
Assay: LDH release cytotoxicity, % of total lysis control; higher = more cytotoxic
Settings: 48 h
Summary of the method: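 On collagen I-coated 96-well plates, single-lot HepaRG cells were exposed for 48 h, in duplicate, to eight-point half-log series of test chemicals beginning at 100 µM. The exposure medium was serum-free induction medium with 0.5% DMSO, and total lysis wells got 0.1% Triton X. Resorufin fluorescence from the CytoTox-ONE reaction, read on a Tecan Safire, reported LDH in 50 µL of spent medium. Percent cytotoxicity came from normalization to on-plate vehicle and total lysis controls, averaged over the duplicates.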

Compound | LDH release cytotoxicity (0.03162 µM) [%] | LDH release cytotoxicity (0.1 µM) [%] | LDH release cytotoxicity (0.3162278 µM) [%] | LDH release cytotoxicity (1 µM) [%] | LDH release cytotoxicity (3.16228 µM) [%] | LDH release cytotoxicity (10 µM) [%] | LDH release cytotoxicity (31.6228 µM) [%] | LDH release cytotoxicity (100 µM) [%] | other results
Nc1ccc2c(c1)C(=O)c1ccccc1C2=O [2-Aminoanthraquinone] | -1.78 ± 0.3 | -1.65 ± 0.022 | -1.65 ± 0.11 | -1.44 ± 0.32 | -1.62 ± 0.56 | -1.05 ± 0.29 | -1.21 ± 0.022 | -0.125 ± 0.23 | 
COc1ccccc1N [2-Anisidine] | -1.27 ± 0.34 | -0.978 ± 0.2 | -0.111 ± 0.059 | -0.865 ± 1.6 | -1.04 ± 0.64 | 0.222 ± 0.33 | 0.835 ± 0.33 | 4.39 ± 0.47 | 
CCC(C)N=O (stereo not given) [2-Butanone oxime] |  |  |  |  |  |  |  |  | LDH release cytotoxicity (0.02261 µM): 0.0542 ± 0.017%; LDH release cytotoxicity (0.0715 µM): -0.457 ± 0.27%; LDH release cytotoxicity (0.2261029 µM): -1.06 ± 1%; LDH release cytotoxicity (0.715 µM): -1.57 ± 0.89%; LDH release cytotoxicity (2.26103 µM): -1.04 ± 0.2%; LDH release cytotoxicity (7.15 µM): -1.22 ± 0.13%; LDH release cytotoxicity (22.6103 µM): -1.08 ± 0.69%; LDH release cytotoxicity (71.5 µM): 0.052 ± 1%
CCCCOCCO [2-Butoxyethanol] | -2.12 ± 0.86 | -0.886 ± 1 | -1.1 ± 1.1 | -2.21 ± 0.073 | -1.06 ± 0.48 | -0.332 ± 0.52 | -0.824 ± 0.64 | 1.02 ± 0.18 | 
O=C(CCl)c1ccccc1 [2-Chloroacetophenone] | -1 ± 0.077 | -0.706 ± 0.44 | 0.0478 ± 0.81 | -0.336 ± 0.2 | -0.414 ± 0.23 | 0.0717 ± 0.49 | 1.4 ± 0.058 | 17.7 ± 0.94 | 
OCCCl [2-Chloroethanol] | -1.15 ± 0.41 | -1.03 ± 0.86 | -1.59 ± 0.33 | -1.39 ± 0.77 | -1.15 ± 0.39 | -0.492 ± 0.48 | -0.514 ± 0.24 | 4.05 ± 0.92 | 
Oc1ccccc1Cl [2-Chlorophenol] | -2.95 ± 2.4 | -4.22 ± 0.094 | -4.63 ± 0.13 | -4.14 ± 0.96 | -3.68 ± 0.21 | -3.65 ± 0.22 | -2.05 ± 0.13 | 1.5 ± 0.076 | 
Cc1ccccc1Cl [2-Chlorotoluene] | -1.99 ± 0.36 | -1.94 ± 0.73 | -2.27 ± 0.5 | -1.84 ± 0.56 | -2.6 ± 0.59 | -1.26 ± 0.43 | -0.387 ± 0.48 | 0.838 ± 0.49 | 
CCOCCO [2-Ethoxyethanol] | -0.38 ± 0.81 | 0.655 ± 1 | -0.174 ± 0.26 | 0.482 ± 0.056 | 0.0895 ± 0.63 | 0.267 ± 1.2 | 0.257 ± 0.32 | 1.46 ± 0.97 | 
CCCCC(CC)CO (stereo not given) [2-Ethyl-1-hexanol] |  |  |  |  |  |  |  |  | LDH release cytotoxicity (0.0320971 µM): -0.547 ± 0.26%; LDH release cytotoxicity (0.1015 µM): -0.771 ± 0.15%; LDH release cytotoxicity (0.320971 µM): -0.413 ± 0.19%; LDH release cytotoxicity (1.015 µM): -0.597 ± 0.57%; LDH release cytotoxicity (3.2097118 µM): 0.185 ± 0.13%; LDH release cytotoxicity (10.15 µM): 0.421 ± 0.39%; LDH release cytotoxicity (32.0971 µM): 0.242 ± 0.43%; LDH release cytotoxicity (101.5 µM): 0.842 ± 0.13%
CCCCC(CC)C(=O)O (stereo not given) [2-Ethylhexanoic acid] |  |  |  |  |  |  |  |  | LDH release cytotoxicity (0.0327296 µM): -0.279 ± 0.2%; LDH release cytotoxicity (0.1035 µM): -1.03 ± 0.49%; LDH release cytotoxicity (0.327296 µM): -1.23 ± 0.14%; LDH release cytotoxicity (1.035 µM): -1.42 ± 0.82%; LDH release cytotoxicity (3.27296 µM): -1.45 ± 0.089%; LDH release cytotoxicity (10.35 µM): -1.29 ± 0.7%; LDH release cytotoxicity (32.729574 µM): -1.58 ± 0.37%; LDH release cytotoxicity (103.5 µM): -0.99 ± 0.68%
CCCCCCOCCO [2-Hexyloxyethanol] | -0.677 ± 0.42 | -1.05 ± 0.26 | -0.605 ± 0.04 | -0.402 ± 0.99 | -1.19 ± 0.28 | 0.932 ± 0.059 | 0.572 ± 0.76 | 47.6 ± 2.2 | 
Sc1nc2ccccc2s1 [2-Mercaptobenzothiazole] | -0.515 ± 0.59 | 0.0327 ± 0.27 | -0.565 ± 1.2 | -0.708 ± 0.47 | 0.4 ± 0.3 | 0.658 ± 0.27 | 1.05 ± 0.11 | 3.61 ± 0.18 | 
COc1ccc(C)cc1N [2-Methoxy-5-methylaniline] | -1.46 ± 2 | -3.72 ± 0.18 | -3.46 ± 0.056 | -4.05 ± 0.41 | -3.672 ± 0.029 | -4.54 ± 1.1 | -2.55 ± 0.51 | 14.6 ± 1.5 | 
COCCO [2-Methoxyethanol] | -2.71 ± 0.16 | -2.42 ± 0.11 | -1.84 ± 0.67 | -2.08 | -2.13 ± 0.46 | -1.562 ± 0.005 | 0.278 ± 0.11 | 2.52 ± 0.4 | 
CC(O)CC(C)(C)O (stereo not given) [2-Methyl-2,4-pentanediol] | -1.84 ± 0.52 | -2.18 ± 0.3 | -2.81 ± 0.68 | -2.8 ± 1.5 | -2.62 ± 0.7 | -2.46 ± 1 | -2.69 ± 1.3 | -0.649 ± 1.4 | 
Cc1ccccc1N [2-Methylaniline] | -1.2 ± 0.49 | -0.736 ± 0.52 | -0.698 ± 0.12 | -0.759 ± 0.47 | -1.37 ± 0.23 | -0.264 ± 0.12 | -0.213 ± 0.19 | 0.285 ± 0.61 | 
Oc1ccc2ccccc2c1 [2-Naphthalenol] | -0.471 ± 0.51 | -0.55 ± 0.25 | -0.787 ± 0.15 | -0.57 ± 0.2 | -0.679 ± 0.39 | -0.106 ± 0.093 | 0.851 ± 0.3 | 13.8 ± 0.73 | 
Nc1ccc2ccccc2c1 [2-Naphthylamine] | -1.06 ± 0.22 | -1.31 ± 0.37 | -0.801 ± 0.7 | -1.43 ± 0.78 | -1.16 ± 0.89 | -0.463 ± 0.054 | 0.128 ± 0.57 | 0.14 ± 0.74 | 
Cc1ccccc1[N+](=O)[O-] [2-Nitrotoluene] |  |  |  |  |  |  |  |  | LDH release cytotoxicity (0.0324133 µM): -0.207 ± 0.0063%; LDH release cytotoxicity (0.1025 µM): -0.999 ± 0.6%; LDH release cytotoxicity (0.324134 µM): -0.895 ± 0.32%; LDH release cytotoxicity (1.025 µM): -1.29 ± 0.7%; LDH release cytotoxicity (3.24133 µM): -0.412 ± 0.16%; LDH release cytotoxicity (10.25 µM): 0.00334 ± 0.67%; LDH release cytotoxicity (32.4133 µM): 0.414 ± 0.41%; LDH release cytotoxicity (102.5 µM): 1.14 ± 0.065%
